Laboratory results reported in patent US8741871B2, “Trehalose compound, method for producing same, and pharmaceutical product containing the compound” (priority 2008, dated 2014).

Tests used:
[1] = test system: mouse intraperitoneal macrophages; assay: Measurement of phagocytic ability of mouse intraperitoneal macrophages (fluorescent beads); type: cell-based; settings: 50 μM test compound, 2 hours, FIG. 2
Experimental: Mouse intraperitoneal macrophages, a 40 mM test compound solution, and an RPMI1640 medium were prepared in the same manner as described above.
In the following experiment, Fluoresbrite (trademark) Carboxylate Microspheres (2.58% Solids-Latex) YG (Polysciences, Inc.) were used as fluorescent beads.
Macrophages were added to a TC-Plate (TC-PLATE 24 WELL, STERILE WITH LID, IND PACKED, greiner bio-one), so that they became 80% confluent. The macrophages were incubated at 37° C. for 2 hours. Thereafter, the supernatant was discarded, and the cells were then washed with 500 μl of RPMI 1640 medium two times. Each composition shown in Table 3 below was added to the TC-Plate, and it was then incubated at 37° C. for 2 hours. Thereafter, the supernatant was discarded, and the cells were then washed with 300 μl of sterilized PBS (−). In order to remove fluorescent beads that had not been incorporated into the cells, the aforementioned washing operation was repeatedly carried out two times. Macrophages were peeled off with 200 μl of sterilized PBS (−), and were then transferred into an Eppendorf tube. The macrophages were centrifuged at 1,500 rpm for 8 minutes. […]
Using FUJI FILM FLA-2000, the amount of fluorescent beads incorporated into the cells was measured [fluorescence intensity (Fluor 473 nm, Y520 Filter)]. For analysis, Image Reader V1.4J was used.

THP-1 cells [2] = assay: Measurement of IL-8 released from THP-1 cells (ELISA); type: cell-based, human; settings: 50 μM test compound, two hours; FIG. 5
Experimental: An RPMI medium solution was prepared in the same manner as described above. Using this medium solution, an RPMI medium solution of the test compound was prepared as follows.
1.0 mg of the test compound was dissolved in 25 μl of DMSO by an ultrasonic treatment for approximately 1 minute. The thus obtained 40 mM test compound stock solution was added to 100 μl of RPMI medium to a final concentration of 50 μM. […] In the case of preparing the vehicle used as a control, instead of the 40 mM test compound stock solution, only the solvent was added in the same amount as described above to the RPMI medium, and it was then treated with ultrasonic wave for 5 seconds.
THP-1 cells (purchased from Cell Bank, RIKEN BioResource Center) were added to an RPMI medium to a cell density of 1.0×10^6 cells/100 μl and 100 μl each of the obtained solution was dispensed into a sterile Eppendorf tube. 100 μl of the RPMI medium solution of the test compound as prepared above was treated with ultrasonic wave for 5 seconds, and the total amount of the solution was then added to the Eppendorf tube, into which the cells had been dispensed. Two hours later, the reacted Eppendorf tube was centrifuged at 5000 rpm for 5 minutes, and the amount of IL-8 released into the supernatant was then measured using ELISA kit (human IL-8 ELISA kit (R & D Systems (trademark)).

THP-1 cells [3] = assay: Analysis of cytotoxicity to THP-1 cells using trypan blue; type: cell-based, human; settings: treated for 2 hours and for 24 hours; FIG. 10
Experimental: The cultured THP-1 cells were transferred into a 50-ml centrifuge tube in a clean bench. The cells were then centrifuged at 1,000 rpm for 5 minutes at 20° C., and the supernatant was then removed. […] 10 μl of this cell suspension was added to a sterile Eppendorf tube, to which 990 μl of serum-free RPMI 1640 medium had previously been added, so that the solution was 100-fold diluted. The number of cells in 10 μl of the 100-fold diluted solution was counted with a blood cell counter, and the cell suspension was diluted with serum-free RPMI 1640 medium to a cell density of 1×10^7 cells/ml.
A test compound (Example 9)/DMSO solution, or DMSO was added to 100 μl of RPMI medium to a concentration of 200 μM. Thereafter, ultrasonic wave was applied to the mixture for 5 seconds. It is to be noted that a test compound, 6-O-(2-decyldecanoyl)-α-glucose (hereinafter referred to as a “control compound B”), and TDCM were used to prepare positive controls in the same manner as described above. In addition, a negative control was prepared by adding no test compounds (vehicle). […] Subsequently, 20 μl of 0.3% trypan blue/PBS (−) was added to the reaction solution so as to suspend the reaction solution therein, and thereafter, the survival rate of the cells was immediately analyzed using a cell number measuring apparatus (CYRORECON).

[4] = test system: IL-6, TNF-α, IFN-γ in mouse plasma; assay: Measurement of IL-6, TNF-α and IFN-γ released into peripheral blood of test compound administered mouse; settings: 100 μg/mouse intravenous, two hours later; for IL-6-releasing activity (mouse plasma IL-6 concentration) compared with TDCM: FIG. 6; for IFN-γ-releasing activity (mouse plasma IFN-γ concentration) compared with TDCM: FIG. 7

Row | SMILES | action to activate the phagocytosis of mouse intraperitoneal macrophages, compared with TDCM [1] | IL-8 released from THP-1 cells, activity compared with TDCM (THP-1 cells [2]) | cytotoxicity to THP-1 cells (survival rate, trypan blue staining) (THP-1 cells [3]) | IL-6-releasing activity (mouse plasma IL-6 concentration) compared with TDCM [4] | IFN-γ-releasing activity (mouse plasma IFN-γ concentration) compared with TDCM [4] | plasma TNF-α concentration in mice, activity compared with TDCM ([4]; FIG. 8)
1 | CCCCCCCCCC(CCCCCCCCC)CC(=O)OCC1O[C@H](O[C@H]2OC(COC(=O)CC(CCCCCCCCC)CCCCCCCCC)[C@@H](O)C(O)C2O)C(O)C(O)[C@@H]1O (stereo partly drawn) [Example 9, 6,6′-bis-O-(3-nonyldodecanoyl)-α,α′-trehalose] | approximately two times higher than the activity of TDCM | approximately 0.8 times | cytotoxicity was not observed | approximately 1.5 times | approximately 1.5 times | –
2 | CCCCCCCCCCC(CCCCCCCCCC)C(=O)OCC1O[C@H](O[C@H]2OC(COC(=O)C(CCCCCCCCCC)CCCCCCCCCC)[C@@H](O)C(O)C2O)C(O)C(O)[C@@H]1O (stereo partly drawn) [Example 1, 6,6′-bis-O-(2-decyldodecanoyl)-α,α′-trehalose] | approximately two times higher than the activity of TDCM | approximately 0.6 times | significant results could be obtained | approximately 1.2 times | approximately 1.5 times | the same level as that of TDCM
